The values that follow come from patent publication US10959979B2, “Small molecules against cancer” (Biokine Therapeutics Ltd., priority 2015, dated 2021).

Each structure is given as a SMILES string. Converted amounts (≈) assume the structure as drawn.

One experiment relates to MV4-11 (FLT3-ITD) cells. Briefly: AML cells in vivo: NSG mice transplanted with MV4-11 cells. Conditions: BKT300 at 98% purity; 1 mg/Kg intraperitoneally for three consecutive days from day 21; day 25; anti human CD45. Further details: species or system NOD scid gamma (NSG) mice. As to the method:
The effect of BKT300 (at 98% purity) on the proliferation of AML cells in vivo was examined by treatment of NOD scid gamma (NSG) mice transplanted with MV4-11 (FLT3-ITD) cells.
The mice were subjected to irradiation with 300 rad and on the following day were transplanted by IV injection with MV4-11 (FLT3-ITD) cells, 10×10^6 cells/mouse. 21 days following transplantation, the treated group was injected intraperitoneally with 1 mg/Kg of BKT300 (98% purity) per injection for three consecutive days. On day 25 following transplantation, mice were sacrificed and the survival of the human AML blasts in the blood, spleen and the bone marrow was evaluated using anti human CD45.

Experiment [1] concerns MV4-11 human acute myeloid leukemia cells. As to the kind of experiment: Cancer cell viability, FACS with propidium iodide staining. Type of experiment: cell-based. As to the method:
(§1) In order to assess the effect of compounds of Table 2 on cancer cell viability, the in vitro effect of the compounds on MV4-11 human acute myeloid leukemia cells was evaluated. The cancer cells were incubated in RPMI cell medium with 1% fetal calf serum (FCS) at a concentration of 2×10^5 cells/well at a final volume of 250 μl in 96-well plate. The compounds were added to the cells at the indicated concentrations. The cells were incubated for 24 hours and the number of dead and viable cells was then evaluated by fluorescence-activated cell sorting (FACS), using propidium iodide (PI) staining.

The next experiment concerns 440 kinases. Briefly: LanthaScreen europium kinase binding assay, screen of 440 kinases. More on the design: species or system human. The procedure: (§2) In order to further characterize the effect of BKT300 on cell signaling, kinase profiling of BKT300 (at 78% purity) was performed (by the Life Technologies SelectScreen® Biochemical Profiling Lab) using a LanthaScreen® europium kinase binding assay to screen 440 kinases.
(§3) The principle of the LanthaScreen® assay is depicted in FIG. 48. Binding of an Alexa Fluor® conjugate or “tracer” to a kinase is detected by addition of a europium (Eu)-labeled anti-tag antibody. Binding of the tracer and antibody to a kinase results in a high degree of FRET, whereas displacement of the tracer with a kinase inhibitor results in a loss of FRET. The kinase tracers are based on ATP-competitive kinase inhibitors, making them suitable for detection of any compounds that bind to the ATP site. Inhibitors that bind the ATP site include both Type I kinase inhibitors, which bind solely to the ATP site, and Type II inhibitors (e.g., imatinib, sorafenib, BIRB-796), which bind to both the ATP site and a second site often referred to as the allosteric site.

The target in a further experiment is MCP-1 (Homo sapiens, UniProt P13500). As to the kind of experiment: Migration of THP-1 cells towards MCP-1 (Transwell migration assay). In kind it is cell-based. The settings on record: BKT300 at 78% purity. As to the method:
(§4) 600 μl of RPMI medium was added to the lower chambers of Transwell® transmigration plates, supplemented with 2 μg/ml of MIP3a, 100 ng/ml of SDF-1 or 10 ng/ml of MCP-1. The tested small molecule was added to the lower chambers at the indicated concentration, except in control samples. The MIP3a, SDF-1 or MCP-1 was incubated with the small molecule for 30 minutes at room temperature before the initiation of the migration assay. Following 30 minutes of incubation 2×10^5 immune cells were added to the upper chambers of the transmigration plates in a total volume of 100 μl. Cells which migrated within 3 hours to the bottom chamber of the Transwell® plates were counted using a FACScalibur™ flow cytometer.
To evaluate migration towards MCP-1, THP-1 cells were re-suspended in RPMI medium containing 1% fetal calf serum (FCS).

Another experiment deals with SDF-1 (Homo sapiens, UniProt P48061). Briefly: Migration of Jurkat cells towards SDF-1 (Transwell migration assay). Type of experiment: cell-based. The settings on record: for Inhibition of migration of lymphocytic Jurkat cells towards SDF-1: 10 μg/ml. As to the method:
as §4
To evaluate migration towards SDF-1, Jurkat cells were re-suspended in RPMI medium containing 1% fetal calf serum (FCS).

A further experiment has as its target MIP3a (Homo sapiens, UniProt P78556). Briefly: Migration of CD4+ T-cells toward MIP3a (Transwell migration assay). In kind it is cell-based. The settings on record: 50 μg/ml; BKT300 at 78% purity. The procedure:
as §4
To evaluate migration toward MIP3a, peripheral blood mononuclear cells (PBMCs) were isolated from heparinized venous blood by centrifugation over Ficoll Histopaque® 1077. CD4+ T cells were further isolated with RosetteSep™ human CD4+ T-cell Enrichment cocktail (StemCell Technologies Inc.), according to the manufacturer's instructions. CD4+ T cells were re-suspended in RPMI medium containing 1% fetal calf serum (FCS).

In experiment [2] the test system is Jurkat human acute lymphoblastic leukemia cells. Briefly: Cancer cell viability, FACS with propidium iodide staining. Type of experiment: cell-based. The settings on record: BKT300 at 78% purity. As to the method: as §1
(§5) The in vitro effect of BKT300 (at 78% purity) on cancer cell viability was further evaluated using a variety of additional cancer cell lines, using procedures as described hereinabove with respect to MV4-11 cells.

The test system of experiment [3] is RPMI human multiple myeloma cells. The experiment is described as above. Type of experiment: cell-based. The settings on record: BKT300 at 78% purity; concentrations as low as 2 μg/ml (the lowest tested concentration). The procedure:
as §1, §5

For experiment [4], the system named is H460 human large cell lung cancer cells. Described as above. Type of experiment: cell-based. The settings on record: 10 μg/ml; BKT300 at 78% purity. The procedure: as §1, §5
Experiment [5] concerns Bjab human lymphoma cells. The description is as above. Type of experiment: cell-based. The settings on record: 8.5 μg/ml; BKT300 at 78% purity. As to the method: as §1, §5
The subject of experiment [6] is H345 human small cell lung cancer cells. The description is as above. In kind it is cell-based. Conditions: 8.5 μg/ml; BKT300 at 78% purity. The procedure: as §1, §5
Experiment [7] deals with Raji human lymphoma cells. The experiment is described as above. In kind it is cell-based. The settings on record: BKT300 at 78% purity. As to the method: as §1, §5
A further experiment deals with T1, MLCK (MLCK2) (Homo sapiens, UniProt Q32MK0).
T1 sequence (Q32MK0 1-819): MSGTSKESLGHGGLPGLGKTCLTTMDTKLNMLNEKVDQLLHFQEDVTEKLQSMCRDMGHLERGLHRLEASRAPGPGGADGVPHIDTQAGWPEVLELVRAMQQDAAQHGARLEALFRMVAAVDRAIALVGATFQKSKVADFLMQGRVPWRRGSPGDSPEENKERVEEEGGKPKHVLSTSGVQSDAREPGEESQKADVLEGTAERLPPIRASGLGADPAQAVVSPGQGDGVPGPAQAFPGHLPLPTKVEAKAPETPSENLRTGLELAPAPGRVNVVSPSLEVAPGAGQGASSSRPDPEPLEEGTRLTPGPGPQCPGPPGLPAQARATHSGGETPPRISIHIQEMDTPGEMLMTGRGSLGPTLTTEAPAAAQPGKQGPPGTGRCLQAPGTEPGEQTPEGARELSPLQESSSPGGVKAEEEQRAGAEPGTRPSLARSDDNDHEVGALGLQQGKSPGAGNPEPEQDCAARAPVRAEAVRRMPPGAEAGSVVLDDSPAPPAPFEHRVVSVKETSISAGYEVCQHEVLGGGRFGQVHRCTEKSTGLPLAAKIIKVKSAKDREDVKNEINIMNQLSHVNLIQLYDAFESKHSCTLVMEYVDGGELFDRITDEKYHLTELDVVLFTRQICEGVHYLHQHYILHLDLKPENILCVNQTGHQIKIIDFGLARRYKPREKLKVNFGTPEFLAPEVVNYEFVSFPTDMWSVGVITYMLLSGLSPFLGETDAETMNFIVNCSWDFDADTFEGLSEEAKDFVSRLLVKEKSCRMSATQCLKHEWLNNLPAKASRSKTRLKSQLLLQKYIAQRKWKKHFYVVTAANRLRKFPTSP
Briefly: LanthaScreen europium kinase binding assay. The settings on record: BKT300 at 78% purity. The procedure: as §2, §3
A general note: In TR-FRET formats the signal depends on donor and acceptor labels being close together.

SDF-1, sequence (P48061 22-93): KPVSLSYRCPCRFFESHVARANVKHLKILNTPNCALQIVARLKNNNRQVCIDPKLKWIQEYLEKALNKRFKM
MCP-1, sequence (P13500 24-99): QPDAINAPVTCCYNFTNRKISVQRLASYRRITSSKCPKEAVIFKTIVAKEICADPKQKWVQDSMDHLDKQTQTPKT
MIP3a, sequence (P78556 27-96): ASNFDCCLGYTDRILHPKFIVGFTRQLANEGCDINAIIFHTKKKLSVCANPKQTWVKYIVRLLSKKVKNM

Usually IC50 stands for the concentration needed to halve the response being measured. Usually % Inhibition stands for the relative decrease from the control value, in per cent. Lower therefore signals little suppression. Consider `CCCCCc1cc2cc(O)cc(Oc3c(O)cc(O)cc3CCCCC)c2c(=O)o1` [BKT300], for which the “Number and percentage of AML cells in the bone marrow of mice” value with MV4-11 (FLT3-ITD) cells is “dramatically reduced”. Also, in [1] (4.25 μg/ml, BKT300 at 98% purity vs 78% purity), the “Degree of cell death of MV4-11 cells, 98% purity compared with 78% purity” value is reported as “considerably greater degree of cell death”. For the same compound, the “Cell death of MV4-11 cells” value in experiment [1] (BKT300 at 78% purity, concentrations as low as 2 μg/ml (the lowest tested concentration), 24 hours) is “induced cell death”. Besides, the “Induction of cell death of MV4-11 cells, 98% purity compared with 78% purity” value in experiment [1] (BKT300 at 98% purity vs BKT300 at 78% purity) is recorded as “significantly more effective”. Further, the IC50 in experiment [1] (Homo sapiens, MV4-11, BKT300 at 78% purity, 24 hours, read-out: IC50 for induced death of MV4-11 cells) amounted to 2.72 µg/mL (≈ 6.38 µM); in experiment [2] (Homo sapiens, Jurkat, read-out: IC50 for BKT300-induced death of Jurkat cells), 3.5 µg/mL (≈ 8.21 µM). For the same compound, the “Inhibition of 36 of the 440 screened kinases” value with 440 kinases (BKT300 at 78% purity) is on record as “more than 40%”. The “Affinity of BKT300 to kinases, based on the kinase screening assay” value in the experiment on 440 kinases (estimated from Table 3) is “few tens”. The “Inhibition of migration of monocytic THP-1 cells towards MCP-1” value on MCP-1 (10 μg/ml) is “no apparent effect”; at MCP-1 (50 μg/ml), “strong inhibition”. The “Inhibition of migration of lymphocytic Jurkat cells towards SDF-1” value at SDF-1 (BKT300 at 78% purity) and on SDF-1 (BKT300 at 98% purity) was “significantly inhibited” in each case. Besides, the “Selectivity of inhibition of SDF-1 function over MCP-1 and/or MIP3a function” value at SDF-1 (at a concentration of about 10 μg/ml) is given as “relatively selective manner”. Moreover, the “Inhibition of CD4+ T-cell migration towards MIP3a” value at MIP3a is “completely inhibited”. Also, the “Cell death of Jurkat cells” value in experiment [2] (concentrations as low as 2 μg/ml (the lowest tested concentration)) is given as “induced cell death”. For the same compound, the “Cell death of RPMI cells” value in [3] is reported as “induced cell death”. In experiment [4], the “Cell death of H460 cells” value was “about 80%”. Also, the “Cell death of Bjab cells” value in experiment [5] is “about 30%”. Also, the “Cell death of H345 cells” value in [6] is “over 90%”. The results for the “Cell death of Raji cells” value in experiment [7] (4.25 μg/ml) and in experiment [7] (8.5 μg/ml) were “slight cell death” and “about 30%”, respectively. The “% Inhibition” value at MLCK (MLCK2) was 58%.
